# Assay results from patent US5736556A, “Tropane-2-aldoxime derivatives as nevro transmitter reuptake inhibitors” (NeuroSearch A/S, priority 1994, dated 1998).
# Experiments:
# dopamine transporter [1] = target: T1, dopamine transporter (Rattus norvegicus, UniProt P23977); settings: background, in vitro, in words; cited from earlier work
# T1 construct: Corpus striatum from male Wistar rats (150-200 g) is homogenized; from tissue; host or cells: corpus striatum of male Wistar rats
# dopamine transporter [2] = target: dopamine transporter (Mus musculus, UniProt Q61327); settings: cited from earlier work
# [3] = tested on: MPTP-induced Parkinsonism in Marmoset Monkeys; experiment: Antagonism of MTPT-induced Parkinsonism in Marmoset Monkeys; type: in vivo, common marmoset; settings: MPTP-treated marmosets, oral gavage, 0.1 to 2.5 mg/kg; for locomotor activity: 10 h
# From the text: Antagonism of MTPT-induced Parkinsonism in Marmoset Monkeys
# Administration of MPTP (1-methyl-4-phenyl-1,2,3,6-tetrahydropyridine, hydrochloride) to monkeys induce a lesion of the dopaminergic system in the brain and gives rise to parkinsonian symptoms. By subsequent administration of test-compounds, the ability of the compounds to alleviate the parkinsonian signs can be tested.
# Common marmosets (weighing 350-400 g, aged 3-5 years and of either sex) were used in the study. Animals were housed alone under standard conditions at a temperature of […] and 50% relative humidity using a 12 hour light-dark cycle. Animals had free access to food and Water.
# Some months before locomotor or behavioural testing began, animals were treated with MPTP (1-methyl-4-phenyl-1,2,3,6-tetrahydropyridine, hydrochloride) dissolved in sterile 0.9% saline in doses of 2 mg/kg administered subcutaneously daily for 5 days or until a clear parkinsonian state developed. The cumulative doses administered ranged between 8-12 mg/kg. During MPTP treatment and throughout the following 2-3 weeks the animals were hand fed until they had recovered enough to be able to feed themselves.
# Test compounds was dissolved in 100% Tween 80 with warming to 40°-50° C. and then diluted with water. Test compounds was given by oral gavage in a volume of 2 ml/kg. In addition test compound vehicle was administered on each experimental day for comparison with drug treatments. Each animal was treated with vehicle or one of the three doses of test compound over the following weeks, with a one week period of recovery between treatments.
# Rating of disability: The disability of animals were scored as follows; alertness (normal 0, sleepy 2); reaction to stimuli (normal 0, reduced 1, slow 2, absent 3); checking movements (present 0, reduced 1, absent 2); attention and eye movements (normal 0, abnormal 1); posture (normal 0, abnormal trunk 1, abnormal limbs 1, abnormal tail 1, or grossly abnormal 4); balance/coordination (normal 0, impaired 1, unstable 2, spontaneous falls 3); vocalization (normal 0, reduced 1, absent 2).
# Measurement of locomotor activity: Locomotor activity was measured simultaneously for four individual animals each in a metal cage (50 w×60 l×70 h cm) with transparent plastic doors (50 w×70 h cm) similar to the home cages but fitted with eight horizontally orientated infrared photocells. […] Locomotor counts were measured as the number of light beam interuptions which occured as the animals moved about. These movement counts were accumulated in 30 minutes intervals and recorded for the 10 h duration of experimentation.
# Data analysis: The mean (±) s.e.m. was calculated for time courses and accumulated locomotor counts or behavioural disability scores for the different treatment groups.
# [4] = tested on: stereotyped behaviour of the rat; experiment: Abnormal stereotyped behaviour (side effect profile); type: in vivo; design: key to Activity (high intensity stereotypy): +: only stereotyped sniffing; ++: stereotyped sniffing and episodic licking; +++: continuous licking and/or biting gnawing
# From the text: Side Effect Profile of the Compounds of the Present Invention
# The side effects of cocaine and the central stimulant amphetamine derivatives involve central excitement and stimulation in animals including primates and these effects can also be observed in humans. A serious side effect of cocaine and of the amphetamine derivatives includes also the ability to provoke toxic psychotic symptoms closely resembling the mental disease schizophrenia and these include halucinations, paranoia and abnormal bizarre stereotyped mental activity and stereotypy.
# The induction of stereotyped abnormal behavior in rodents thus also represents one of the most used animal models of schizophrenia in models for antipsychotic neuroleptic drugs (including haloperidol and chlorpromazine).
# The development of toxic abnormal stereotyped amphetamine syndrome as described below may predict a toxic central stimulant side effect of dopamine releasing compounds in humans.
# Classification of the Abnormal Stereotyped Behaviour
# In general, the abnormal stereotyped behaviour after administration of amphetamine and cocaine-like central stimulant drugs can be classified into "low" and "high" intensity scores of stereotyped behaviour. […]
# [5] = target: T2, dopamine transporter (^3 H-dopamine uptake) (Rattus norvegicus, UniProt P23977); settings: background, in words; cited from earlier work
# T2 construct: Corpi striati from male Wistar rats (150-200 g) are homogenized; from tissue; host or cells: P2 synaptosomes of corpus striatum, male Wistar rats
# [6] = target: T3, ^3 H-noradrenaline uptake (noradrenaline transporter) (Rattus norvegicus, UniProt Q63380); experiment: In vitro inhibition of ^3 H-noradrenaline (^3 H-NA) uptake in hippocampal synaptosomes; type: biochemical, rat (male Wistar); settings: ^3 H-NA 1 nM, 90 min at 37° C.
# T3 construct: Hippocampi from male Wistar rats (150-200 g) are homogenized; from tissue; host or cells: P2 synaptosomes of hippocampus, male Wistar rats
# From the text: (§1) The compounds of the invention have also been tested for their ability to inhibit reuptake of dopamine(DA) noradrenalin(NA) and serotonin(5-HT) in synaptosomes.
# (§2) Specific neurotransmitter transporters/uptake sites on nerve terminals presumably function to terminate neuronal signaling by removing the neurotransmitters dopamine, noradrenaline and serotonin, respectively, from the synaptic cleft. The activity of the transporter integral proteins can be measured in vitro by synaptosomal uptake of ^3 H-dopamine, ^3 H-noradrenaline and ^3 H-serotonine, respectively.
# In vitro inhibition of ^3 H-noradrenaline (^3 H-NA) uptake in hippocampal synaptosomes
# (§3) Tissue preparation: Preparations are performed at 0°-4° C. unless otherwise indicated. Hippocampi from male Wistar rats (150-200 g) are homogenized for 5-10 sec in 100 volumes of ice-cold 0.32M sucrose containing 1 mM pargyline using an Ultra-Turrax homogenizer. Monoamine oxidase activity will be inhibited in the presence of pargyline. The homogenate is centrifuged at 1000×g for 10 min. The resulting supernatant is then centrifuged at 27,000×g for 50 min and the supernatant is discarded. The pellet (P2) is resuspended in oxygenated (equilibrated with an atmosphere of 96% O2 : 4% CO2 for at least 30 min) Krebs-Ringer incubation buffer (2000 ml per g of original tissue) at pH 7.2 containing 122 mM NaCl, 0.16 mM EDTA, 4.8 mM KCl, 12.7 mM Na2 HPO4, 3.0 mM NaH2 PO4, 1.2 mM MgSO4, 0.97 mM CaCl2, 10 mM glucose and 1 mM ascorbic acid.
# Assay: Aliquots of 4.0 ml tissue suspension are added to 100 μl of test solution and 100 μl of ^3 H-NA (1 nM, final concentration), mixed and incubated for 90 min at 37° C. Non-specific uptake is determined using desipramine (1 μM, final concentration). After incubation the samples are poured directly onto Whatman GF/C glass fibre filters under suction. […] The amount of radioactivity on the filters is determined by conventional liquid scintillation counting. Specific uptake is calculated as the difference between total uptake and non-specific uptake. […]
# [7] = target: T2, dopamine transporter (^3 H-dopamine uptake); experiment: In vitro inhibition of ^3 H-dopamine (^3 H-DA) uptake in striatal synaptosomes; type: biochemical, rat (male Wistar); settings: ^3 H-DA 1 nM, 25 min at 37° C.
# From the text: as §1, §2
# In vitro inhibition of ^3 H-dopamine (^3 H-DA) uptake in striatal synaptosomes
# as §3, with “Tissue preparations:” for “Tissue preparation:”, “indicated. Corpi striati” for “indicated. Hippocampi”, “resulting supermatant” for “resulting supernatant”, “buffer (8000” for “buffer (2000”, “MgSO4, 1” for “MgSO4, 0.97”
# Assay: Aliquots of 4.0 ml tissue suspension are added to 100 μl of test solution and 100 μl of ^3 H-DA (1 nM, final concentration), mixed and incubated for 25 min at 37° C. Non-specific uptake is determined using benztropine (10 μM, final concentration). After incubation the samples are poured directly onto Whatman GF/C glass fibre filters under suction. […] The amount of radioactivity on the filters is determined by conventional liquid scintillation counting. Specific uptake is calculated as the difference between total uptake and non-specific uptake. […]
# Sequence of dopamine transporter (Mus musculus, UniProt Q61327) (Q61327 whole entry): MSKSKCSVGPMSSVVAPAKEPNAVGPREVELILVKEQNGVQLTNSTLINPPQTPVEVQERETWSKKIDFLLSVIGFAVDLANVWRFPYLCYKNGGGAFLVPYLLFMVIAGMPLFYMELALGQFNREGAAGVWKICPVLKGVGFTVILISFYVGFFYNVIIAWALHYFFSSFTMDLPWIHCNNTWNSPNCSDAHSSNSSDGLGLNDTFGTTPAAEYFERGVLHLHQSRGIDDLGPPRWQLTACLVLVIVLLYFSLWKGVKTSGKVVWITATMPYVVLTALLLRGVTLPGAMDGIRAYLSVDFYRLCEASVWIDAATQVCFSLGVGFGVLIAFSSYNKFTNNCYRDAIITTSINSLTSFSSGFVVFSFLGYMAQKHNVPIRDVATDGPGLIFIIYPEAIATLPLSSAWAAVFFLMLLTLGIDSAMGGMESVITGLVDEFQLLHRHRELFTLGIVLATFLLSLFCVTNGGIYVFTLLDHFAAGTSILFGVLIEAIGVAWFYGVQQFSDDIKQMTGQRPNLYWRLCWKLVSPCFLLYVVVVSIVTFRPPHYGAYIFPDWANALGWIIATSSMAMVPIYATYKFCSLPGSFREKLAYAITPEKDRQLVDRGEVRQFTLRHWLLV
# T2 sequence (P23977 whole entry): as the sequence (Q61327 whole entry) above, with P21S, V57A, S194A, R600H, V619L counted along it
# T1 sequence (P23977 whole entry): as the sequence (Q61327 whole entry) above, with P21S, V57A, S194A, R600H, V619L counted along it
# T3 sequence (Q63380 1-617): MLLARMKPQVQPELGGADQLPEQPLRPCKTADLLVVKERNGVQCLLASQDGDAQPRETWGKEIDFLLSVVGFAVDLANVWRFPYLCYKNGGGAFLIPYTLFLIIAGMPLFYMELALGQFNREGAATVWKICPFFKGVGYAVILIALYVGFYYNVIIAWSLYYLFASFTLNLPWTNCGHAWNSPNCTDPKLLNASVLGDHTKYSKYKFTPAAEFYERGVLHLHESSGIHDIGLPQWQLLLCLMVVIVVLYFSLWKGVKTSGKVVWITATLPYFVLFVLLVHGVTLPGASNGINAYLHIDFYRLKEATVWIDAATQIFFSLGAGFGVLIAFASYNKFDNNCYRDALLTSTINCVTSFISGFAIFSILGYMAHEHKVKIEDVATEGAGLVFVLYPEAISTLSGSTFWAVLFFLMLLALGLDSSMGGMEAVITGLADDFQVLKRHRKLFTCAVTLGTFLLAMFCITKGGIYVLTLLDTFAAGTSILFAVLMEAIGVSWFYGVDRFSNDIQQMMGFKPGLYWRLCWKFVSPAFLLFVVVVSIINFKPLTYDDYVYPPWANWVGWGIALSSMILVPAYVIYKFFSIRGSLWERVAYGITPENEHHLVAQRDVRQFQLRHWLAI
smiles,measurement,setting,value
COC(=O)[C@H]1[C@@H](c2ccc(F)cc2)C[C@@H]2CC[C@H]1N2C [^3 H-WIN 35428],binding to the dopamine transporter,dopamine transporter [1],binds selectively and with high affinity to the dopamine transporter complex
same,time to maximum of specific binding in the striatum,"dopamine transporter [2]; in vivo, iv",30 min
"CON=C[C@@H]1[C@@H](c2ccc(Cl)c(Cl)c2)C[C@@H]2CC[C@H]1N2C [NS2214, (1R,2R,3S)-3-(3,4-dichlorophenyl)tropane-2O-methyl-aldoxime]",disability scores,[3],dose-dependent decrease in disability scores
same,locomotor activity,[3],dose dependent increase in locomotor activity
same,locomotor activity,[3]; listed as NS 2214,dose-dependent increase in locomotor activity
same,disability scores,[3]; listed as NS 2214,dose dependent decrease in disability scores
same,Activity (high intensity stereotypy),[4]; 15 mg/kg p.o.,+++
same,lowest dosis giving the activity indicated (stereotypy +++),[4]; p.o.,15 mg/kg
COC(=O)[C@H]1[C@@H](OC(=O)c2ccccc2)C[C@@H]2CC[C@H]1N2C [cocaine],binding to the dopamine transporter,dopamine transporter [1],binds to the dopamine transporter
same,inhibition of ^3 H-dopamine uptake,[5],inhibits ^3 H-dopamine uptake
same,prevention of specific binding of ^3 H-WIN 35428 in vivo,dopamine transporter [2],partly or completely prevented
"CON=C[C@@H]1[C@@H](c2ccc(Cl)c(Cl)c2)C[C@@H]2CC[C@H]1N2C (single isomer, unassigned) [(1R,2R,3S)-3-(3,4-dichlorophenyl)-tropane 2-O-methyl-aldoxime, syn-isomere]",IC50,[6],1.5 nM
same,IC50,[7],3.4 nM
